This passage reports IC50 results from patent US20240116985A1, “STAPLED PEPTIDES AND METHODS THEREOF” (priority 2020, published 2024).

Structures are written as SMILES. Read-outs that look alike come from different tables or passages of the source.

Assay [1] concerns the target T1, beta-catenin/TCF4 engagement (Homo sapiens, UniProt P35222).
T1 construct: expressed in transfected cells; host or cells: HEK293
T1 sequence (P35222 1-781): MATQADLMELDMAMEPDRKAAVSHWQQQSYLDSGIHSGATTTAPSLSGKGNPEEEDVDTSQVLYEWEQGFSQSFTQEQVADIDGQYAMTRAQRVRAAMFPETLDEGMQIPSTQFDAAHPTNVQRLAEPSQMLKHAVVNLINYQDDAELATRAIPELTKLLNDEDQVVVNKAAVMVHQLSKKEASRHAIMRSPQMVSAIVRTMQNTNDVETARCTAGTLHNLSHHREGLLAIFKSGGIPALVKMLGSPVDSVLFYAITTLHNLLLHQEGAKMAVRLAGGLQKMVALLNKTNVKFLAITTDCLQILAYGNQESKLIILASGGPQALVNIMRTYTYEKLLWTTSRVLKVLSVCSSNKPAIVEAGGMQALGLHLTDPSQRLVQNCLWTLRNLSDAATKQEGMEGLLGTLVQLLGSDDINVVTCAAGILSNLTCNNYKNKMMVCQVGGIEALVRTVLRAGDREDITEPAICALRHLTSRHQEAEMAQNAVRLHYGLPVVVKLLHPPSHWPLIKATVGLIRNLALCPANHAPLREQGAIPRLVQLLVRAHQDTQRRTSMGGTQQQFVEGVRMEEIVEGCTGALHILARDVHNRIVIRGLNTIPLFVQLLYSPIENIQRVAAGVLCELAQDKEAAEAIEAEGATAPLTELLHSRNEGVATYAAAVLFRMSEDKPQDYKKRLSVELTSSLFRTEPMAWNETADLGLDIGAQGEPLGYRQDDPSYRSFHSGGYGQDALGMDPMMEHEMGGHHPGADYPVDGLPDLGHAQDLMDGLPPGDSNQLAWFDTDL
Briefly: Nano-BRET target engagement assay (B-cat-Halo & TCF4-Luc in HEK293 cells). The class given is cell-based. Particulars: read-out: NanoBRET Abs IC50. (In general: In BRET a luciferase serves as donor, and the signal depends on an acceptor being close.)

Assay [2] addresses T2, full-length beta-Catenin (Uniprot ID P35222) (Homo sapiens, UniProt P35222).
T2 construct: 10 nM full-length beta-Catenin (Uniprot ID P35222)
T2 sequence (P35222 1-781): T1 sequence (P35222 1-781)
Briefly: Fluorescence polarization IC50 (beta-catenin / 5FAM-TCF4 10-53 competition). The format is binding. The conditions noted are these: fluorescence polarization; read-out: beta-Catenin FP IC50. On the technique in general: Fluorescence polarisation rises when a labelled molecule tumbles more slowly, as on binding a larger partner.

For assay [3], the system named is TCF/LEF luciferase Reporter in DLD1 cells. Nature of the assay: TCF reporter assay (DLD1 TCF/LEF luciferase reporter, Bright-Glo). Particulars: read-out: DLD1 4% Abs IC50. The class given is cell-based. The essentials: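 Readouts: Bright-Glo luciferase for reporter signal and CellTiter-Glo for cell viability, with absolute IC50 derived. The reporter clone came from lentiviral TCF/LEF-luciferase transduction of DLD1 cells, seeded 5000 cells/well in RPMI with 4% FBS and exposed overnight to serially diluted compounds.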
Background: Reporter assays use an easily measured gene product as a stand-in for the process of interest.

Where [4] appears, read: DLD1 reporter assay, 4%, absolute IC50.
Where [5] appears, read: DLD1 reporter, 4%, absolute IC50.

For orientation: IC50 means the concentration that inhibits the measured activity by half. Take `CC(=O)N1CCC[C@]12CC=CCCCC1(CCCC=CCCCOC(=O)N3CC[C@@](C(=O)N[C@@H](Cc4ccsc4)C(=O)N[C@@H](Cc4csc5ccccc45)C(=O)N[C@H](C(N)=O)[C@@H](C)O)(C3)NC(=O)[C@H](CC(C)C)NC(=O)[C@H](Cc3ccccc3)NC(=O)[C@H](C)NC(=O)[C@H](C)NC(=O)[C@H](CN(CC(=O)O)CC(F)(F)F)NC(=O)[C@H](CC(=O)O)NC1=O)NC(=O)[C@H](CC(C)(C)C)NC(=O)[C@H](CC(=O)O)NC2=O` (stereo partly drawn) [I-1706, Ac-PL3-Asp-Npg-B5-Asp-TfeGA-Ala-Ala-Phe-Leu-PyrS2-3Thi-BztA-Thr-NH2]: the IC50 in assay [1] (absolute IC50) stood at 4800 nM; in assay [2] it was 24 nM; in assay [3] (setting [4]), 2700 nM.
The corresponding values for `CC(=O)NCCCC[C@H](NC(=O)[C@H](Cc1csc2ccccc12)NC(=O)[C@H](Cc1ccsc1)NC(=O)[C@]12CCN(C1)C(=O)OCCCC=CCCCC1(CCCC=CC[C@]3(CCCN3C(C)=O)C(=O)N[C@@H](CC(=O)O)C(=O)N[C@@H](CC(C)(C)C)C(=O)N1)C(=O)N[C@@H](CC(=O)O)C(=O)N[C@@H](CN(CC(=O)O)CC(F)(F)F)C(=O)N[C@@H](C)C(=O)N[C@@H](C)C(=O)N[C@@H](Cc1ccccc1)C(=O)N[C@@H](CC(C)C)C(=O)N2)C(N)=O` (stereo partly drawn) [I-1709, Ac-PL3-Asp-Npg-B5-Asp-TfeGA-Ala-Ala-Phe-Leu-PyrS2-3Thi-BztA-AcLys-NH2] are 6200 nM, 14 nM and 3900 nM.
Take `CC(=O)N1CCC[C@]12CC=CCCCC1(CCCC=CCCCOC(=O)N3CC[C@@](C(=O)N[C@@H](Cc4ccsc4)C(=O)N[C@@H](Cc4csc5ccccc45)C(=O)N[C@@H](C)C(N)=O)(C3)NC(=O)[C@H](CC(C)C)NC(=O)[C@H](Cc3ccccc3)NC(=O)[C@H](C)NC(=O)[C@H](C)NC(=O)[C@H](CN(CC(=O)O)CC(F)(F)F)NC(=O)[C@H](CC(=O)O)NC1=O)NC(=O)[C@H](CC(C)(C)C)NC(=O)[C@H](CC(=O)O)NC2=O` (stereo partly drawn) [I-1710, Ac-PL3-Asp-Npg-B5-Asp-TfeGA-Ala-Ala-Phe-Leu-PyrS2-3Thi-BztA-Ala-NH2]: the values for the IC50 in assay [1] (absolute IC50), in assay [2] and in assay [3] (setting [4]) were 3900 nM, 22 nM and 1900 nM, respectively.
For the molecule `CC(=O)N1CCC[C@]12CC=CCCCC1(CCCC=CCCCOC(=O)N3CC[C@@](C(=O)N[C@@H](Cc4ccsc4)C(=O)N[C@@H](Cc4csc5ccccc45)C(=O)N[C@@H](C)C(N)=O)(C3)NC(=O)[C@H](CC(C)C)NC(=O)[C@H](Cc3ccccc3)NC(=O)[C@H](C)NC(=O)[C@H](CCC(N)=O)NC(=O)[C@H](Cc3cccc(C(=O)O)c3)NC(=O)[C@H](CC(=O)O)NC1=O)NC(=O)[C@H](CC(C)(C)C)NC(=O)[C@H](CC(=O)O)NC2=O` (stereo partly drawn) [I-1918, Ac-PL3-Asp-Npg-B5-Asp-3COOHF-Gln-Ala-Phe-Leu-PyrS2-3Thi-BztA-Ala-NH2], the IC50 turned out to be 4000 nM in assay [1], 5 nM in assay [2] and 6500 nM in assay [3] (DLD1 4%).
As for `CC(=O)N1CCC[C@]12CC=CCCCC1(CCCC=CCCCOC(=O)N3CC[C@@](C(=O)N[C@@H](Cc4ccsc4)C(=O)N[C@@H](Cc4csc5ccccc45)C(=O)N[C@@H](C)C(N)=O)(C3)NC(=O)[C@H](CC(C)C)NC(=O)[C@H](Cc3ccccc3)NC(=O)[C@H](C)NC(=O)C(C)(C)NC(=O)[C@H](Cc3cccc(C(=O)O)c3)NC(=O)[C@H](CC(=O)O)NC1=O)NC(=O)[C@H](CC(C)(C)C)NC(=O)[C@H](CC(=O)O)NC2=O` (stereo partly drawn) [I-1920, Ac-PL3-Asp-Npg-B5-Asp-3COOHF-Aib-Ala-Phe-Leu-PyrS2-3Thi-BztA-Ala-NH2], the IC50 in assay [1] is 3100 nM; in assay [2], 18 nM; in assay [3] (DLD1 4%), 1200 nM.
The corresponding values for `CC(=O)N1CCC[C@]12CC=CCCCC1(CCCC=CCCCOC(=O)N3CC[C@@](C(=O)N[C@@H](Cc4ccsc4)C(=O)N[C@@H](Cc4csc5ccccc45)C(=O)N[C@@H](CC(N)=O)C(=O)N[C@@H](C)C(=O)N[C@@H](C)C(=O)N[C@H](C)C(N)=O)(C3)NC(=O)[C@H](CC(C)C)NC(=O)[C@H](Cc3ccccc3)NC(=O)[C@H](C)NC(=O)[C@H](C)NC(=O)[C@H](Cc3cccc(C(=O)O)c3)NC(=O)[C@H](CC(=O)O)NC1=O)NC(=O)[C@H](CC(C)(C)C)NC(=O)[C@H](CC(=O)O)NC2=O` (stereo partly drawn) [I-2047, Ac-PL3-Asp-Npg-B5-Asp-3COOHF-Ala-Ala-Phe-Leu-PyrS2-3Thi-BztA-Asn-Ala-Ala-dAla-NH2] are 2600 nM, 11 nM and 1300 nM.
`CC(=O)N1CCC[C@]12CC=CCCCC1(CCCC=CCCCOC(=O)N3CC[C@@](C(=O)N[C@@H](Cc4ccsc4)C(=O)N[C@@H](Cc4csc5ccccc45)C(=O)N[C@@H](CCS(C)(=O)=O)C(N)=O)(C3)NC(=O)[C@H](CC(C)C)NC(=O)[C@H](Cc3ccccc3)NC(=O)[C@H](C)NC(=O)[C@H](C)NC(=O)[C@H](Cc3cccc(C(=O)O)c3)NC(=O)[C@H](CC(=O)O)NC1=O)NC(=O)[C@H](CC(C)(C)C)NC(=O)[C@H](CC(=O)O)NC2=O` (stereo partly drawn) [I-2061, Ac-PL3-Asp-Npg-B5-Asp-3COOHF-Ala-Ala-Phe-Leu-PyrS2-3Thi-BztA-Met2O-NH2]: the IC50 in assay [1] turned out to be 1900 nM; in assay [2], 13 nM; in assay [3] (DLD1 4%), 1800 nM.
Regarding `CC(=O)N1CCC[C@]12CC=CCCCC1(CCCC=CCCCOC(=O)N3CC[C@@](C(=O)N[C@@H](Cc4ccsc4)C(=O)N[C@@H](Cc4csc5ccccc45)C(=O)N[C@@H](CCC(N)=O)C(N)=O)(C3)NC(=O)[C@H](CC(C)C)NC(=O)[C@H](Cc3ccccc3)NC(=O)[C@H](C)NC(=O)[C@H](C)NC(=O)[C@H](CCn3cc(CC(C)(C)C(=O)O)nn3)NC(=O)[C@H](CC(=O)O)NC1=O)NC(=O)[C@H](CC(C)(C)C)NC(=O)[C@H](CC(=O)O)NC2=O` (stereo partly drawn) [I-2077, Ac-PL3-Asp-Npg-B5-Asp-[CH2CMe2CO2H]TriAzDab-Ala-Ala-Phe-Leu-PyrS2-3Thi-BztA-Gln-NH2], the IC50 was 12300 nM in assay [1], 9 nM in assay [2] and 5800 nM in assay [3] (DLD1 4%).
Consider `CC(=O)N1CCC[C@]12CC=CCCCC1(CCCC=CCCCOC(=O)N3CC[C@@](C(=O)N[C@@H](Cc4ccsc4)C(=O)N[C@@H](Cc4csc5ccccc45)C(=O)N[C@@H](CCC(N)=O)C(N)=O)(C3)NC(=O)[C@H](CC(C)C)NC(=O)[C@H](Cc3ccccc3)NC(=O)[C@H](C)NC(=O)[C@H](C)NC(=O)[C@H](Cn3cc(CC(=O)O)nn3)NC(=O)[C@H](CC(=O)O)NC1=O)NC(=O)[C@H](CC(C)(C)C)NC(=O)[C@H](CC(=O)O)NC2=O` (stereo partly drawn) [I-2084, Ac-PL3-Asp-Npg-B5-Asp-[CH2CO2H]TriAzDap-Ala-Ala-Phe-Leu-PyrS2-3Thi-BztA-Gln-NH2], for which the IC50 in assay [1] stood at 9200 nM; in assay [2] it was 5 nM; in assay [3] (DLD1 4%), 9700 nM.
`CC(=O)N1CCC[C@]12CC=CCCCC1(CCCC=CCCCOC(=O)N3CC[C@@](C(=O)N[C@@H](Cc4ccsc4)C(=O)N[C@@H](Cc4csc5ccccc45)C(=O)N[C@@H](CC(N)=O)C(=O)N[C@@H](CC(C)C)C(=O)N[C@@H](CC(C)C)C(=O)N[C@@H](CC(C)C)C(N)=O)(C3)NC(=O)[C@H](CC(C)C)NC(=O)[C@H](Cc3ccccc3)NC(=O)[C@H](C)NC(=O)[C@H](C)NC(=O)[C@H](Cc3cccc(C(=O)O)c3)NC(=O)[C@H](CC(=O)O)NC1=O)NC(=O)[C@H](CC(C)(C)C)NC(=O)[C@H](CC(=O)O)NC2=O` (stereo partly drawn) [I-2276, Ac-PL3-Asp-Npg-B5-Asp-3COOHF-Ala-Ala-Phe-Leu-PyrS2-3Thi-BztA-Asn-Leu-Leu-Leu-NH2]: the figures for the IC50 in assay [1] (absolute IC50), in assay [2] and in assay [3] (setting [5]) were 4000 nM, 157 nM and 3900 nM, respectively.
Turning to `CC(=O)N1CCC[C@]12CC=CCCCC1(CCCC=CCCCOC(=O)N3CC[C@@](C(=O)N[C@@H](Cc4ccccc4C(F)(F)F)C(=O)N[C@@H](Cc4csc5ccccc45)C(=O)N[C@@H](CO)C(N)=O)(C3)NC(=O)[C@H](CC(C)C)NC(=O)[C@H](Cc3ccccc3)NC(=O)[C@H](C)NC(=O)[C@H](C)NC(=O)[C@H](Cn3cc(C(C)(C)C(=O)O)nn3)NC(=O)[C@H](CC(=O)O)NC1=O)NC(=O)[C@H](CC(C)(C)C)NC(=O)[C@H](CC(=O)O)NC2=O` (stereo partly drawn) [I-2374, Ac-PL3-Asp-Npg-B5-Asp-[CMe2CO2H]TriAzDap-Ala-Ala-Phe-Leu-PyrS2-2F3MeF-BztA-Ser-NH2], the IC50 in assay [1] (absolute IC50) turned out to be 3400 nM; in assay [2] it was 7 nM; in assay [3] (setting [5]), 2600 nM.
